Assay results: patent publication US20250312462A1, “PAK1 DEGRADERS AND METHODS OF USE THEREOF” (INSTITUTE FOR CANCER RESEARCH D/B/A THE RESEARCH INSTITUTE …, priority 2022, published 2025)

Columns and labels:
[1] = biological target: RSK4(Kin.Dom.1-N-terminal) (Homo sapiens, UniProt Q9UK32); test: KINOMEscan; conditions: read-out: Percent Control
Method: (§4) The kinase engagement assay (KINOMEscan®) was performed by DiscoverX assessing binding abilities toward a set of kinases.

ERK = ERK phosphorylation in OVCAR3 and MCF7 cells, immunoblot; assay type: cell-based; conditions: 10 nM, 24 hours
Method: (§1) FIG. 3A is a series of Western blots showing OVCAR3 and MCF7 cells that were treated for 24 hours with DMSO, 10 nM BJG-05-039, or NVS-PAK1-1 as indicated. MEK and ERK phosphorylation was assessed by immunoblot with the indicated phosphorylation-specific antibodies. FIG. 3B is a Western blot showing MCF7 cells that were stably transduced with a doxycycline-regulated shRNA against PAK1. shRNA expression was induced by the indicated amounts of doxycycline and immunoblots were performed using cell lysates 24 hours post doxycycline addition. FIG. 3C is a Western blot showing MCF7 cells that were treated with vehicle or […] doxycycline. Immunoblots were performed using cell lysates 24 hours post doxycycline addition.
(§2) Cells were washed once in PBS and lysed in RIPA buffer (50 mM Tris-HCl, 150 mM NaCl, 0.25% (w/v) sodium deoxycholate, 1% (w/v) NP-40, pH 7.5) containing protease inhibitor cocktail (Roche) and phosphatase inhibitor cocktail (Roche) for 30 minutes on ice. […]
(§3) In certain cell lines, PAK1 has well-characterized functions in regulating proliferative signaling. […] As a readout for anti-PAK activity, phosphorylation of MEK1 at S298 was assessed, a direct target site for Group A PAKs (Coles, et al. (2002) Oncogene 21:2236-2244; Slack-Davis, et al. (2003) J. Cell. Biol., 162:281-291), as well as phosphorylation of the downstream target of MEK, ERK. […]

LRRK2(G2019S) = LRRK2(G2019S) (Homo sapiens, UniProt Q5S007, G2019S); test: KINOMEscan; conditions: read-out: Percent Control
Method: as §4

MAK = MAK (Homo sapiens, UniProt P20794); test: KINOMEscan; conditions: read-out: Percent Control
Method: as §4

NLK = NLK (Homo sapiens, UniProt Q9UBE8); test: KINOMEscan; conditions: read-out: Percent Control
Method: as §4

EPHA6 = EPHA6 (Homo sapiens, UniProt Q9UF33); test: KINOMEscan; conditions: read-out: Percent Control
Method: as §4

[2] = biological target: TYK2(JH1domain-catalytic) (Homo sapiens, UniProt P29597); test: KINOMEscan; conditions: read-out: Percent Control
Method: as §4

PYK2 = PYK2 (Homo sapiens, UniProt Q14289); test: KINOMEscan; conditions: read-out: Percent Control
Method: as §4

RAF1 = RAF1 (Homo sapiens, UniProt P04049); test: KINOMEscan; conditions: read-out: Percent Control
Method: as §4

FLT3(ITD, F691L) = test: KINOMEscan; conditions: 10 μM
Method: as §4

FGFR3 = FGFR3 (Homo sapiens, UniProt P22607); test: KINOMEscan; conditions: read-out: Percent Control
Method: as §4

KIT = KIT (Homo sapiens, UniProt P10721); test: KINOMEscan; conditions: read-out: Percent Control
Method: as §4

PLK3 = PLK3 (Homo sapiens, UniProt Q9H4B4); test: KINOMEscan; conditions: read-out: Percent Control
Method: as §4

VPS34 = VPS34 (Homo sapiens, UniProt Q8NEB9); test: KINOMEscan; conditions: read-out: Percent Control
Method: as §4

RET(V804M) = RET(V804M) (Homo sapiens, UniProt P07949, V804M); test: KINOMEscan; conditions: read-out: Percent Control
Method: as §4

ERBB2 = ERBB2 (Homo sapiens, UniProt P04626); test: KINOMEscan; conditions: read-out: Percent Control
Method: as §4

PKAC-beta = PKAC-beta (Homo sapiens, UniProt P22694); test: KINOMEscan; conditions: read-out: Percent Control
Method: as §4

DDR1 = DDR1 (Homo sapiens, UniProt Q08345); test: KINOMEscan; conditions: read-out: Percent Control
Method: as §4

MEK1 at S298 = test: MEK phosphorylation in OVCAR3 and MCF7 cells, immunoblot; assay type: cell-based; conditions: 10 nM, 24 hours
Method: as §1, §2, §3

TAOK2 = TAOK2 (Homo sapiens, UniProt Q9UL54); test: KINOMEscan; conditions: read-out: Percent Control
Method: as §4

ARK5 = ARK5 (Homo sapiens, UniProt O60285); test: KINOMEscan; conditions: read-out: Percent Control
Method: as §4

HUNK = HUNK (Homo sapiens, UniProt P57058); test: KINOMEscan; conditions: read-out: Percent Control
Method: as §4

PIK3CD = PIK3CD (Homo sapiens, UniProt O00329); test: KINOMEscan; conditions: read-out: Percent Control
Method: as §4

GRK3 = GRK3 (Homo sapiens, UniProt P35626); test: KINOMEscan; conditions: read-out: Percent Control
Method: as §4

EPHB1 = EPHB1 (Homo sapiens, UniProt P54762); test: KINOMEscan; conditions: read-out: Percent Control
Method: as §4

DAPK3 = DAPK3 (Homo sapiens, UniProt O43293); test: KINOMEscan; conditions: read-out: Percent Control
Sequence of DAPK3 (O43293 whole entry): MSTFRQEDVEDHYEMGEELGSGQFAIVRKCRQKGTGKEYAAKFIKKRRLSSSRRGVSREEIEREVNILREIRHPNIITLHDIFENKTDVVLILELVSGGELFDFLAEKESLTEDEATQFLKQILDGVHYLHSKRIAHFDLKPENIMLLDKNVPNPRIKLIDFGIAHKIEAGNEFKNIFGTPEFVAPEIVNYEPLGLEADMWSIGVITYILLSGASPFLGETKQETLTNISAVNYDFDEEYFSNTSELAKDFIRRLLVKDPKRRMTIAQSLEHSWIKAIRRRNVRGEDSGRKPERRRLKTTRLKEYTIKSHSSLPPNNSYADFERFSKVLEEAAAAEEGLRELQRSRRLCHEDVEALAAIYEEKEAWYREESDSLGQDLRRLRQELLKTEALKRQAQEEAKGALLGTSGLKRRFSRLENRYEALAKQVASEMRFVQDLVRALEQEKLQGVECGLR
Method: as §4

Sequence of RAF1 (P04049 whole entry): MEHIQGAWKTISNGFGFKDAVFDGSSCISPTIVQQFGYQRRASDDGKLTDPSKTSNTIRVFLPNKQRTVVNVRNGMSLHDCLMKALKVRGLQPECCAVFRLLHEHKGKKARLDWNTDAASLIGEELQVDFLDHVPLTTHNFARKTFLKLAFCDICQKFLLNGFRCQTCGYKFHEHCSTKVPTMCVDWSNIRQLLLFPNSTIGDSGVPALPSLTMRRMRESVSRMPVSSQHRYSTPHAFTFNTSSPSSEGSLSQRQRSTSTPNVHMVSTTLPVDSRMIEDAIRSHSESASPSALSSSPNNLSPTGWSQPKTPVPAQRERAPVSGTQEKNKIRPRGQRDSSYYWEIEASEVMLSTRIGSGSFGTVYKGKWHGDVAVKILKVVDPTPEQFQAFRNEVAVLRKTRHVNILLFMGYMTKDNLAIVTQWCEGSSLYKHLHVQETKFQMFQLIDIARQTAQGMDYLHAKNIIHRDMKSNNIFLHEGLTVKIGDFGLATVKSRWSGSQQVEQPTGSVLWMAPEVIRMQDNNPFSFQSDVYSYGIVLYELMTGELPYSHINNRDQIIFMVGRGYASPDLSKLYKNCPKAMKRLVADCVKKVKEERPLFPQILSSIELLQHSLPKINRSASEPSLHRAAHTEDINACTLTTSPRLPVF
Sequence of VPS34 (Q8NEB9 whole entry): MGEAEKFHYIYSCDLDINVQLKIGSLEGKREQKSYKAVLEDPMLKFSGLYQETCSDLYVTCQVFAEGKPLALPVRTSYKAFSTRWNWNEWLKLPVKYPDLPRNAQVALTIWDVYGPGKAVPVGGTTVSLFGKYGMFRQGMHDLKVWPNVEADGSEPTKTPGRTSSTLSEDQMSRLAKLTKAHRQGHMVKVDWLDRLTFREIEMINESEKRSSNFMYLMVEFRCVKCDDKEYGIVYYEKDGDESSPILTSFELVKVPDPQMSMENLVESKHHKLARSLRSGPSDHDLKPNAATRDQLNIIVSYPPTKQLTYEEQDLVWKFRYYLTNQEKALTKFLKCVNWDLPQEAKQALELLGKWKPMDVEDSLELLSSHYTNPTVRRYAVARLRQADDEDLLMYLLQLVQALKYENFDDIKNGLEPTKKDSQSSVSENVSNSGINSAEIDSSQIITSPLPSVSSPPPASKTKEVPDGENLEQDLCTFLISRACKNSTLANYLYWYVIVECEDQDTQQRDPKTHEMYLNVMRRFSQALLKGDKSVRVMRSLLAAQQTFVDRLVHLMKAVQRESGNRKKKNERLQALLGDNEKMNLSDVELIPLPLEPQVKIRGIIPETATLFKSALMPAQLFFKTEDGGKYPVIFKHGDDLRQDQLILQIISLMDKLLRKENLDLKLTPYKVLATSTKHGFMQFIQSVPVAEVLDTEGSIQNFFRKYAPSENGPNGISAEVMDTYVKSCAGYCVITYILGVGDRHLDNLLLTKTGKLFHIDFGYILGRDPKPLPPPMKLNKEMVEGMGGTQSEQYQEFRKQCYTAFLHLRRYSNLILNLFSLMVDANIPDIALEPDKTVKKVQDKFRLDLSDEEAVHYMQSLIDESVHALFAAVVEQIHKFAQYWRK
Sequence of FGFR3 (P22607 23-806): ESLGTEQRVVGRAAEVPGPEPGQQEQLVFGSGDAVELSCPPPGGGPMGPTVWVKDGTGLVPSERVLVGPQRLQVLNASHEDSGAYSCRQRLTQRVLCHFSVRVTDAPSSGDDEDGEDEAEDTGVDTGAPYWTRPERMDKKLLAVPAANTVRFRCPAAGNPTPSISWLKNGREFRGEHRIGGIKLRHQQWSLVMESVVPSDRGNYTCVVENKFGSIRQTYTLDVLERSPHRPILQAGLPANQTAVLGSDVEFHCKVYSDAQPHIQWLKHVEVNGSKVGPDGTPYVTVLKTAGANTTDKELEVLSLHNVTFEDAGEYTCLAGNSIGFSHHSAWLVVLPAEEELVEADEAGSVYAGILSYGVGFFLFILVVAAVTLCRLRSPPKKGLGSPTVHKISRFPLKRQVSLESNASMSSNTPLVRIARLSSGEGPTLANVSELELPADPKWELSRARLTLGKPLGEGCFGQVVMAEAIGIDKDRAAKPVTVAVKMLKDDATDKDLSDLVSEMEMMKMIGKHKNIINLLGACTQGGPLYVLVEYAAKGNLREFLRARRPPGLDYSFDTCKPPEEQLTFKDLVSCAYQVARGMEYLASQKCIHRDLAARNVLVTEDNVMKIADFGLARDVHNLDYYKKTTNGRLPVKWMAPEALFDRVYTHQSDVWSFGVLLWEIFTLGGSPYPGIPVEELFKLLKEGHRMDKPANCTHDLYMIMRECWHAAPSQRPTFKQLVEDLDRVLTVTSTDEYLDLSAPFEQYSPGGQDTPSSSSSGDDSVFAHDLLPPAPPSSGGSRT
Sequence of EPHB1 (P54762 18-984): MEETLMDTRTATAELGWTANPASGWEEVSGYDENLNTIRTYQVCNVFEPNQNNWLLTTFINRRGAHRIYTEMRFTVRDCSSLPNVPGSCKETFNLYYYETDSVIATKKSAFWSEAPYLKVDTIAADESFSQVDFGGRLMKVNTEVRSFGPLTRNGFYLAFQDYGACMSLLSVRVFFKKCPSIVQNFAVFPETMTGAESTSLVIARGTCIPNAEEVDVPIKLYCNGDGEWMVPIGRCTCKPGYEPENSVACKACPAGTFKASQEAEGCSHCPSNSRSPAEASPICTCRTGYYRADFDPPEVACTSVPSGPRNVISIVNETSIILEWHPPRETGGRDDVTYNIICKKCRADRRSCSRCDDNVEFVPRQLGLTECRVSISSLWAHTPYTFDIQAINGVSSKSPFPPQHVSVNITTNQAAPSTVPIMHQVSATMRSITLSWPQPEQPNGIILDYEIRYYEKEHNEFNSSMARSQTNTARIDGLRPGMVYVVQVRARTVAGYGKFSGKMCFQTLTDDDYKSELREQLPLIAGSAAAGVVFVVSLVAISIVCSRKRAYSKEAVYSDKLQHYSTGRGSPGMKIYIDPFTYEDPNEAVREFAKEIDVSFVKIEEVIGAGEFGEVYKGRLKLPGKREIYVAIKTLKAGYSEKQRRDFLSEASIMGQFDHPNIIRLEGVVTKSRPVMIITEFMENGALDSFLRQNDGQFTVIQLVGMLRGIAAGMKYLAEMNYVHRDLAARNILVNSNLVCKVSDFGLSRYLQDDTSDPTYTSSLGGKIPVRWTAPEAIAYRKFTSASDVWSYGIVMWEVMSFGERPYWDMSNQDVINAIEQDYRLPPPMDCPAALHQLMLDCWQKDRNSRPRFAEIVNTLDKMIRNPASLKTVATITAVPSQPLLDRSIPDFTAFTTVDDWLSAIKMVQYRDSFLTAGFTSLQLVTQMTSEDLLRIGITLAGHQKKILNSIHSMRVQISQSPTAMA
Sequence of TYK2(JH1domain-catalytic) (P29597 897-1176 limits assumed): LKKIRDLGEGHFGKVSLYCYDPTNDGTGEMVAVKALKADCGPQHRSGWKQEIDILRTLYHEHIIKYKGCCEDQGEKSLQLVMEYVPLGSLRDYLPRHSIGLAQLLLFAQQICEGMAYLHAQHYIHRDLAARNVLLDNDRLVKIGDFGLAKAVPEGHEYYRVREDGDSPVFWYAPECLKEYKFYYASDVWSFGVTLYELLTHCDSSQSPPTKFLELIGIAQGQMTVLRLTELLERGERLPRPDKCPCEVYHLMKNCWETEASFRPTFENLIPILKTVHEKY
Sequence of EPHA6 (Q9UF33 23-1036): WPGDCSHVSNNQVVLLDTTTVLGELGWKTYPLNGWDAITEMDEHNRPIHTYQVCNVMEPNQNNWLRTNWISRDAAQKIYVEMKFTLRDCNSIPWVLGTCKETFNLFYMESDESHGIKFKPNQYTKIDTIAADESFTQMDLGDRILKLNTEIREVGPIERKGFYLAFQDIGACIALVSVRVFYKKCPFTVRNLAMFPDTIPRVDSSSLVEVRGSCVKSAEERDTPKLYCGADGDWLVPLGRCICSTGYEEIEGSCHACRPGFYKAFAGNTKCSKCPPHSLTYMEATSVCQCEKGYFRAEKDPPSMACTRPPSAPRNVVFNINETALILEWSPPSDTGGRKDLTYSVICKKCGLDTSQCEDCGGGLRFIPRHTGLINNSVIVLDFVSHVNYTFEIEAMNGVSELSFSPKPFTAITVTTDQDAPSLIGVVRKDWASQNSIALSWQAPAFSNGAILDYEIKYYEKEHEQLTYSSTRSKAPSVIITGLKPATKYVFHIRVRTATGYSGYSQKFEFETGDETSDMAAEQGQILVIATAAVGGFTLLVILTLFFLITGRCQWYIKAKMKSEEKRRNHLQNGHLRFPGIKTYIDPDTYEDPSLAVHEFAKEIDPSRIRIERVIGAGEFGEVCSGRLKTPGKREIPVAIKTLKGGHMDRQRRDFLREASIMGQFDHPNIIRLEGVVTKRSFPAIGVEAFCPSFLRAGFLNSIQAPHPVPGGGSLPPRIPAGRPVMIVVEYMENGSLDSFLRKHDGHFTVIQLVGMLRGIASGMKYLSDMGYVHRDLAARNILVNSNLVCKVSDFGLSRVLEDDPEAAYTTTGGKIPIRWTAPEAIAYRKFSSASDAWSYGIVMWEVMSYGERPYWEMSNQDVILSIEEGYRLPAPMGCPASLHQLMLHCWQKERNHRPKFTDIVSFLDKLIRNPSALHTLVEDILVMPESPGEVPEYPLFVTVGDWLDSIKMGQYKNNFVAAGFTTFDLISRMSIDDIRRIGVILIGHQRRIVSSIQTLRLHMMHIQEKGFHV

O=C1CCC(N2C(=O)c3cccc(NCCCCCCCCNC(=O)N4CC[C@H](NC5=Nc6cc(F)ccc6N(CC(F)F)c6ccc(Cl)cc65)C4)c3C2=O)C(=O)N1 (stereo partly drawn) [BJG-05-039, (3S)-3-((2-Chloro-5-(2,2-difluoroethyl)-8-fluoro-5H-dibenzo[b,e][1,4]diazepin-11-yl)amino)-N-(8-((2-(2,6-dioxopiperidin-3-yl)-1,3-dioxoisoindolin-4-yl)amino)octyl)pyrrolidine-1-carboxamide] was tested, and the remaining binding at 10 µM [1] was 95%, the “Phosphorylation of ERK” value (ERK) was “inhibiting phosphorylation of ERK” and the remaining binding at 10 µM (LRRK2(G2019S)) was 96%. It also gave a remaining binding at 10 µM (MAK) of 98%, a remaining binding at 10 µM (NLK) of 53% and a remaining binding at 10 µM (EPHA6) of 94%. It also gave a remaining binding at 10 µM [2] of 91%, a remaining binding at 10 µM (PYK2) of 85% and a remaining binding at 10 µM (RAF1) of 97%. The “Percent Control” value (FLT3(ITD, F691L)) was 94, the remaining binding at 10 µM (FGFR3) was 85% and the remaining binding at 10 µM (KIT) was 82%. For the same compound, the remaining binding at 10 µM (PLK3) was 99%, the remaining binding at 10 µM (VPS34) was 100% and the remaining binding at 10 µM (RET(V804M)) was 59%. For the same compound, the remaining binding at 10 µM (ERBB2) was 100%, the remaining binding at 10 µM (PKAC-beta) was 62% and the remaining binding at 10 µM (DDR1) was 52%. The “Phosphorylation of MEK S298” value (MEK1 at S298) was “inhibited phosphorylation of MEK S298”, the remaining binding at 10 µM (TAOK2) was 93% and the remaining binding at 10 µM (ARK5) was 45%. The remaining binding at 10 µM (HUNK) was 100%, the remaining binding at 10 µM (PIK3CD) was 100% and the remaining binding at 10 µM (GRK3) was 92%. It also gave a remaining binding at 10 µM (EPHB1) of 98% and a remaining binding at 10 µM (DAPK3) of 40%.
